# Data: paper PMC6370294 (Journal of biological inorganic chemistry : JBIC : a …, 2018)
# How the values were obtained:
# 5G-XoxF = target: T1, 5G-XoxF (Methylotuvimicrobium buryatense, UniProt A0A3F2YLY8); assay: DCPIP dye-linked dehydrogenase assay, A600; type: biochemical; conditions: PMS mediator, DCPIP acceptor; La(III) enzyme; 30 °C; 1.5 μM enzyme
# T1 sequence (A0A3F2YLY8 27-617): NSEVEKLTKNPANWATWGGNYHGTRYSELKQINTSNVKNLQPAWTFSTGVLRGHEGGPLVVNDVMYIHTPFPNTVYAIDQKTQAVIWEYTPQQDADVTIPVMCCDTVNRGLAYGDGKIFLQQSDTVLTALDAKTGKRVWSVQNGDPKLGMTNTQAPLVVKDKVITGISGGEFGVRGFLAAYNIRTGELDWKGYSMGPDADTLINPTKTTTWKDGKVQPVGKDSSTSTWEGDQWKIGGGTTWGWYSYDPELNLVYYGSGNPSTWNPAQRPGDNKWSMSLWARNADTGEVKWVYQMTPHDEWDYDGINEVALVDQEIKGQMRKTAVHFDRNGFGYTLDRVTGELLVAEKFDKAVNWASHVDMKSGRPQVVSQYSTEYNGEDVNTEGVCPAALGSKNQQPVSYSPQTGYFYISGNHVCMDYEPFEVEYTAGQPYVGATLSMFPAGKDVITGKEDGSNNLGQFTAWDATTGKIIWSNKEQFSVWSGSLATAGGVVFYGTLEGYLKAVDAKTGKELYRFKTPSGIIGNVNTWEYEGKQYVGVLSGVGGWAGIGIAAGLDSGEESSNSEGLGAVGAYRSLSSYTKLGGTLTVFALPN
# [1] = target: XoxF from Methylomicrobium buryatense 5GB1C (Methylomicrobium buryatense 5GB1C); assay: BLI
compound,measurement,setting,value
CO [methanol],specific activity,5G-XoxF,Purified 5G-XoxF exhibits methanol oxidation activity
particulate methane monooxygenase from Methylomicrobium buryatense 5GB1C (complex),Kd,[1],50 µM
